Data as given in PubChem BioAssay (NCI).
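Cultured in 96-well plates, cells were exposed to test compound for 48 hours across five concentrations. GI50: concentration for 50% inhibition of growth. TGI is the concentration that stops growth completely.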

Columns and labels:
Assay in all cases: inhibition of tumour cell growth, NCI panel, 48 h
[1] = system: NCI-H522 lung
[2] = system: SK-MEL-5 melanoma
[3] = system: SF-295 CNS
[4] = system: MDA-MB-435
[5] = system: OVCAR-5 ovarian
[6] = system: NCI/ADR-RES ovarian
[7] = system: UO-31 renal
[8] = system: HCT-116 colon
[9] = system: UACC-62 melanoma
[10] = system: OVCAR-3 ovarian
[11] = system: SK-MEL-2 melanoma
[12] = system: ACHN renal
[13] = system: UACC-257 melanoma
[14] = system: U251 CNS
[15] = system: MALME-3M melanoma
[16] = system: CAKI-1 renal
[17] = system: OVCAR-8 ovarian
[18] = system: DU-145 prostate
[19] = system: SNB-19 CNS
[20] = system: HOP-92 NSCLC
[21] = system: SN12C renal
[22] = system: SW-620 colon
[23] = system: SF-268 CNS
[24] = system: NCI-H460 lung
[25] = system: T-47D breast
[26] = system: KM12 colon
[27] = system: A498 renal
[28] = system: OVCAR-4 ovarian
[29] = system: HCC-2998 colon
[30] = system: SF-539 CNS
[31] = system: HL-60(TB) leukemia
[32] = system: HT29 colon
[33] = system: MDA-MB-231 breast
[34] = system: HCT-15 colon
[35] = system: SNB-75 CNS
[36] = system: HS 578T breast
[37] = system: A549 NSCLC
[38] = system: HOP-62 NSCLC
[39] = system: PC-3 prostate
[40] = system: COLO 205 colon
[41] = system: SK-MEL-28 melanoma
[42] = system: TK-10 renal
[43] = system: RPMI-8226 leukemia
[44] = system: IGROV1 ovarian
[45] = system: RXF 393 renal
[46] = system: SK-OV-3 ovarian
[47] = system: M14 melanoma
[48] = system: NCI-H226 lung
[49] = system: BT-549 breast
[50] = system: MOLT-4 leukemia
[51] = system: K-562 leukemia
[52] = system: MCF7 breast
[53] = system: 786-0 renal
[54] = system: CCRF-CEM leukemia
[55] = system: LOX IMVI melanoma
[56] = system: EKVX NSCLC

**Q.** How did the GI50 [1] turn out when `N#Cc1c(-c2ccc(Cl)cc2)nc(SCc2ccccc2)nc1N1CCNCC1` was run?
**A.** Its GI50 is 1500 nM.

**Q.** What about the TGI [1] of the same molecule?
**A.** Its TGI is 2900 nM.

**Q.** What about the GI50 [2] of the same molecule?
**A.** The GI50 was 1760 nM.

**Q.** What about the TGI [2] of the same molecule?
**A.** The TGI was 3.14 µM.

**Q.** And the GI50 [3]?
**A.** Its GI50 is 1750 nM.

**Q.** What about the TGI [3] of the same molecule?
**A.** Its TGI is 3.16 µM.

**Q.** And the GI50 [4]?
**A.** Its GI50 is 1700 nM.

**Q.** And the TGI [4]?
**A.** The TGI was 3.1 µM.

**Q.** What about the GI50 [5] of the same molecule?
**A.** The GI50 was 1640 nM.

**Q.** And the TGI [5]?
**A.** The TGI was 3.02 µM.

**Q.** What about the GI50 [6] of the same molecule?
**A.** Its GI50 is 1600 nM.

**Q.** What about the TGI [6] of the same molecule?
**A.** The TGI was 3.18 µM.

**Q.** And the GI50 [7]?
**A.** The GI50 was 1350 nM.

**Q.** And the TGI [7]?
**A.** The TGI was 2640 nM.

**Q.** What about the GI50 [8] of the same molecule?
**A.** The GI50 was 1640 nM.

**Q.** And the TGI [8]?
**A.** Its TGI is 3.12 µM.

**Q.** What about the GI50 [9] of the same molecule?
**A.** The GI50 was 1770 nM.

**Q.** What about the TGI [9] of the same molecule?
**A.** The TGI was 3.21 µM.

**Q.** What about the GI50 [10] of the same molecule?
**A.** The GI50 was 1730 nM.

**Q.** And the TGI [10]?
**A.** The TGI was 3.18 µM.

**Q.** What about the GI50 [11] of the same molecule?
**A.** Its GI50 is 1600 nM.

**Q.** What about the TGI [11] of the same molecule?
**A.** The TGI was 3.02 µM.

**Q.** What about the GI50 [12] of the same molecule?
**A.** Its GI50 is 1670 nM.

**Q.** What about the TGI [12] of the same molecule?
**A.** The TGI was 3.04 µM.

**Q.** What about the GI50 [13] of the same molecule?
**A.** The GI50 was 1550 nM.

**Q.** What about the TGI [13] of the same molecule?
**A.** Its TGI is 2960 nM.

**Q.** And the GI50 [14]?
**A.** The GI50 was 1580 nM.

**Q.** And the TGI [14]?
**A.** The TGI was 2940 nM.

**Q.** What about the GI50 [15] of the same molecule?
**A.** The GI50 was 1710 nM.

**Q.** What about the TGI [15] of the same molecule?
**A.** The TGI was 3.32 µM.

**Q.** What about the GI50 [16] of the same molecule?
**A.** Its GI50 is 1480 nM.

**Q.** And the TGI [16]?
**A.** Its TGI is 2810 nM.

**Q.** What about the GI50 [17] of the same molecule?
**A.** Its GI50 is 1630 nM.

**Q.** What about the TGI [17] of the same molecule?
**A.** The TGI was 3.03 µM.

**Q.** And the GI50 [18]?
**A.** Its GI50 is 1700 nM.

**Q.** What about the TGI [18] of the same molecule?
**A.** The TGI was 3.07 µM.

**Q.** What about the GI50 [19] of the same molecule?
**A.** The GI50 was 1610 nM.

**Q.** And the TGI [19]?
**A.** The TGI was 3.08 µM.

**Q.** What about the GI50 [20] of the same molecule?
**A.** Its GI50 is 1060 nM.

**Q.** And the TGI [20]?
**A.** Its TGI is 2390 nM.

**Q.** And the GI50 [21]?
**A.** The GI50 was 1770 nM.

**Q.** And the TGI [21]?
**A.** The TGI was 3.27 µM.

**Q.** And the GI50 [22]?
**A.** The GI50 was 1690 nM.

**Q.** And the TGI [22]?
**A.** The TGI was 3.22 µM.

**Q.** And the GI50 [23]?
**A.** The GI50 was 1620 nM.

**Q.** What about the TGI [23] of the same molecule?
**A.** The TGI was 3.2 µM.

**Q.** What about the GI50 [24] of the same molecule?
**A.** Its GI50 is 1720 nM.

**Q.** And the TGI [24]?
**A.** Its TGI is 3.19 µM.

**Q.** And the GI50 [25]?
**A.** The GI50 was 1650 nM.

**Q.** What about the TGI [25] of the same molecule?
**A.** Its TGI is 3.26 µM.

**Q.** And the GI50 [26]?
**A.** The GI50 was 1770 nM.

**Q.** What about the TGI [26] of the same molecule?
**A.** The TGI was 3.29 µM.

**Q.** And the GI50 [27]?
**A.** Its GI50 is 1690 nM.

**Q.** And the TGI [27]?
**A.** Its TGI is 3.37 µM.

**Q.** And the GI50 [28]?
**A.** Its GI50 is 1640 nM.

**Q.** What about the TGI [28] of the same molecule?
**A.** Its TGI is 3.08 µM.

**Q.** And the GI50 [29]?
**A.** Its GI50 is 1600 nM.

**Q.** What about the TGI [29] of the same molecule?
**A.** The TGI was 3.03 µM.

**Q.** And the GI50 [30]?
**A.** The GI50 was 1780 nM.

**Q.** And the TGI [30]?
**A.** The TGI was 3.2 µM.

**Q.** And the GI50 [31]?
**A.** The GI50 was 1440 nM.

**Q.** What about the TGI [31] of the same molecule?
**A.** Its TGI is 3.71 µM.

**Q.** What about the GI50 [32] of the same molecule?
**A.** Its GI50 is 1650 nM.

**Q.** What about the TGI [32] of the same molecule?
**A.** Its TGI is 3.02 µM.

**Q.** And the GI50 [33]?
**A.** Its GI50 is 1730 nM.

**Q.** And the TGI [33]?
**A.** Its TGI is 3.37 µM.

**Q.** And the GI50 [34]?
**A.** The GI50 was 1600 nM.

**Q.** And the TGI [34]?
**A.** The TGI was 3.02 µM.

**Q.** And the GI50 [35]?
**A.** The GI50 was 1330 nM.

**Q.** What about the TGI [35] of the same molecule?
**A.** Its TGI is 2680 nM.

**Q.** What about the GI50 [36] of the same molecule?
**A.** Its GI50 is 1890 nM.

**Q.** What about the TGI [36] of the same molecule?
**A.** The TGI was 4.2 µM.

**Q.** And the GI50 [37]?
**A.** Its GI50 is 1550 nM.

**Q.** And the TGI [37]?
**A.** The TGI was 2990 nM.

**Q.** What about the GI50 [38] of the same molecule?
**A.** The GI50 was 1750 nM.

**Q.** And the TGI [38]?
**A.** The TGI was 3.4 µM.

**Q.** What about the GI50 [39] of the same molecule?
**A.** Its GI50 is 1610 nM.

**Q.** What about the TGI [39] of the same molecule?
**A.** The TGI was 3.08 µM.

**Q.** What about the GI50 [40] of the same molecule?
**A.** The GI50 was 1650 nM.

**Q.** And the TGI [40]?
**A.** The TGI was 3.04 µM.

**Q.** And the GI50 [41]?
**A.** Its GI50 is 1780 nM.

**Q.** And the TGI [41]?
**A.** Its TGI is 3.19 µM.

**Q.** And the GI50 [42]?
**A.** Its GI50 is 1510 nM.

**Q.** And the TGI [42]?
**A.** Its TGI is 2890 nM.

**Q.** And the GI50 [43]?
**A.** Its GI50 is 1900 nM.

**Q.** What about the TGI [43] of the same molecule?
**A.** Its TGI is 4.49 µM.

**Q.** And the GI50 [44]?
**A.** The GI50 was 1610 nM.

**Q.** What about the TGI [44] of the same molecule?
**A.** The TGI was 3.06 µM.

**Q.** And the GI50 [45]?
**A.** Its GI50 is 1580 nM.

**Q.** What about the TGI [45] of the same molecule?
**A.** The TGI was 3.02 µM.

**Q.** And the GI50 [46]?
**A.** Its GI50 is 1870 nM.

**Q.** What about the TGI [46] of the same molecule?
**A.** The TGI was 3.57 µM.

**Q.** What about the GI50 [47] of the same molecule?
**A.** The GI50 was 1650 nM.

**Q.** What about the TGI [47] of the same molecule?
**A.** Its TGI is 3.08 µM.

**Q.** And the GI50 [48]?
**A.** The GI50 was 1840 nM.

**Q.** And the TGI [48]?
**A.** Its TGI is 3.53 µM.

**Q.** And the GI50 [49]?
**A.** The GI50 was 1690 nM.

**Q.** What about the TGI [49] of the same molecule?
**A.** The TGI was 3.14 µM.

**Q.** And the GI50 [50]?
**A.** The GI50 was 1600 nM.

**Q.** And the TGI [50]?
**A.** Its TGI is 3.69 µM.

**Q.** And the GI50 [51]?
**A.** Its GI50 is 1770 nM.

**Q.** And the TGI [51]?
**A.** The TGI was 5.81 µM.

**Q.** What about the GI50 [52] of the same molecule?
**A.** The GI50 was 1590 nM.

**Q.** What about the TGI [52] of the same molecule?
**A.** Its TGI is 3.2 µM.

**Q.** And the GI50 [53]?
**A.** The GI50 was 1420 nM.

**Q.** What about the TGI [53] of the same molecule?
**A.** Its TGI is 2960 nM.

**Q.** What about the GI50 [54] of the same molecule?
**A.** The GI50 was 1970 nM.

**Q.** What about the TGI [54] of the same molecule?
**A.** The TGI was 4.51 µM.

**Q.** What about the GI50 [55] of the same molecule?
**A.** Its GI50 is 2050 nM.

**Q.** And the TGI [55]?
**A.** Its TGI is 3.55 µM.

**Q.** And the GI50 [56]?
**A.** The GI50 was 1520 nM.

**Q.** And the TGI [56]?
**A.** The TGI was 2890 nM.
